Results: US20240293413A1, “COMPOUND AND METHOD FOR TREATING CHEMOTHERAPY-RELATED GASTROINTESTINAL SIDE EFFECTS” (ONQUALITY PHARMACEUTICALS CHINA LTD., priority 2021, published 2024)

Tests used:
Type in all cases: in vivo
[1] = tested on: diarrhea caused by a chemotherapeutic agent in Balb/c mice; assay: Examples 230-271 (Table 4): oral CDK inhibitor, relief of diarrhea caused by a chemotherapeutic agent
Outline: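 Balb/c mice, 10 per group (vehicle, chemotherapeutic agent, CDK inhibitor plus chemotherapeutic); CDK inhibitor dosed intragastrically before the chemotherapeutic agent by injection or gavage. Diarrhea graded daily.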

[2] = tested on: diarrhea caused by the continuous administration of a chemotherapeutic agent in Balb/c mice; assay: Examples 444-469 (Table 9): oral CDK inhibitor, diarrhea caused by continuous administration of a chemotherapeutic agent
Excerpt: Balb/c mice were fed for 1 week, and then divided into groups. The experiment was divided into a control group, a chemotherapeutic agent group, and a CDK inhibitor group, each of which comprised 10 mice, to perform the administration experiment, for which the administration dosage, mode, time and frequency were shown in Table 9. The control group: being intragastrically administered with the same solvent as that used in the CDK inhibitor group (the time was shown in Table 9), and then being injected/intragastrically administered with the same solvent as that used in the chemotherapeutic agent group (the administration mode was shown in Table 9): the chemotherapeutic agent group: being intragastrically administered with the same solvent as that used in the CDK inhibitor group (the time was shown in Table 9), and then being injected/intragastrically administered with the chemotherapeutic agent (the type, administration mode, dosage and duration time were shown in Table 9): the CDK inhibitor group: being intragastrically administered with the CDK inhibitor (the time was shown in Table 9), and then being administered with the chemotherapeutic agent (the type, administration mode, dosage and duration time were shown in Table 9).
The scoring of diarrhea can refer to the method of Akinobu Kurita (Cancer Chemother Pharmacol 2000: 46:211-20.), Grade 0: normal feces: Grade 1: mild diarrhea, the stools is slightly wet and soft: Grade 2: moderate diarrhea, loose stools and mild perianal contamination: Grade 3: severe diarrhea, watery stools and accompanied by severe perianal staining (see FIG. 1). It is regarded as effective remission when the diarrhea grading of mice in the CDK inhibitor group is reduced compared with the average diarrhea grading of mice in the chemotherapeutic agent group.
The diarrhea grading of mice was observed and recorded every day. At the end of the experiment, the number of mice in the CDK inhibitor group whose diarrhea grading was lower than that of mice in the chemotherapeutic agent group was recorded. Table 9 lists various animal experiment combinations of chemotherapeutic agents and CDK inhibitors, as well as the corresponding experimental results. (Relative remission rate %=the number of mice in the CDK inhibitor group whose diarrhea has been effectively relieved/the total number of mice in the CDK inhibitor group*100%. The establishment rate of diarrhea model in the chemotherapeutic agent group was 50%-80%, that is, about 5-8 of 10 mice developed diarrhea during the experiment, and there were cases of individual mice death or not developing diarrhea.)

[3] = tested on: constipation caused by a chemotherapeutic agent in Balb/c mice; assay: Examples 406-443 (Table 8): various administration modes of the CDK inhibitor, relief of constipation caused by a chemotherapeutic agent;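 for Relative remission rate of oral administration: percent of treated mice relieved versus chemotherapy group by feces reduction rate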;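 for Relative remission rate of other administration mode: percent of treated mice relieved versus chemotherapy group by feces reduction rate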
Outline: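 Balb/c mice (10 per group) received the CDK inhibitor orally, intravenously via the tail vein, intraperitoneally, intramuscularly, or topically on shaved abdominal skin, followed by a chemotherapeutic agent; vehicle groups served as controls. Feces amount over 3 h was recorded daily. Feces reduction rate was calculated relative to the control group.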

CN1CCN(c2ccc(Nc3ncc4cc5n(c4n3)C3(CCCCC3)CNC5=O)nc2)CC1 [Trilaciclib (G1T28), Trilaciclib]
Relative remission rate ([1]; Example 236, Doxorubicin (Dox) intravenous injection 12 mg/kg single, CDK inhibitor oral 180 mg/kg single, 1 h before, cycle 10 days): 40%
Relative remission rate ([1]; Example 237, Doxorubicin (Dox) intravenous injection 12 mg/kg single, CDK inhibitor oral 180 mg/kg single, 12 h before, cycle 10 days): 60%
Relative remission rate ([1]; Example 238, Doxorubicin (Dox) intravenous injection 12 mg/kg single, CDK inhibitor oral 180 mg/kg single, 24 h before, cycle 10 days): 60%
Relative remission rate ([1]; Example 239, Doxorubicin (Dox) intravenous injection 12 mg/kg single, CDK inhibitor oral 180 mg/kg single, 48 h before, cycle 10 days): 0%
Relative remission rate ([1]; Example 254, Cytarabine (Ara-C) intraperitoneal injection 600 mg/kg single, CDK inhibitor oral 100 mg/kg single, 0.5 h before, cycle 8 days): 60%
Relative remission rate ([1]; Example 255, Cytarabine (Ara-C) intraperitoneal injection 600 mg/kg single, CDK inhibitor oral 100 mg/kg single, 4 h before, cycle 8 days): 80%
Relative remission rate ([1]; Example 256, Cytarabine (Ara-C) intraperitoneal injection 600 mg/kg single, CDK inhibitor oral 100 mg/kg single, 8 h before, cycle 8 days): 80%
Relative remission rate ([1]; Example 257, Cytarabine (Ara-C) intraperitoneal injection 600 mg/kg single, CDK inhibitor oral 100 mg/kg single, 12 h before, cycle 8 days): 60%
Relative remission rate ([1]; Example 258, Cytarabine (Ara-C) intraperitoneal injection 600 mg/kg single, CDK inhibitor oral 100 mg/kg single, 24 h before, cycle 8 days): 40%
Relative remission rate ([1]; Example 259, Cytarabine (Ara-C) intraperitoneal injection 600 mg/kg single, CDK inhibitor oral 100 mg/kg single, 48 h before, cycle 8 days): 0%
Relative remission rate ([1]; Example 270, Vinorelbine (NVB) intramuscular injection 10 mg/kg single, CDK inhibitor oral 50 mg/kg single, 1 h before, cycle 7 days): 50%
Relative remission rate ([2]; Examples 452-455 (one value given; 2 h, 4 h, 6 h, 8 h before), Fluorouracil (5-Fu) intraperitoneal injection 70 mg/kg once a day, for 7 days, CDK inhibitor oral 125 mg/kg once a day, for 7 days, cycle 10 days): 10%
Relative remission rate ([2]; Examples 458-461 (one value given; 2 h, 4 h, 6 h, 8 h before), Capecitabine oral administration 1000 mg/kg (printed 100/0 wrapped) once a day, for 5 days, CDK inhibitor oral 100 mg/kg once a day, for 5 days, cycle 14 days): 50%
relieving effect on diarrhea ([2]; continuous administration of fluorouracil and capecitabine for 7 days or above): not significant
relieving effect on diarrhea ([2]; continuous administration of fluorouracil for less than 7 days): significant relieving effects
Relative remission rate of other administration mode ([3]; Example 411, Doxorubicin (Dox) intravenous injection 12 mg/kg single, CDK inhibitor intraperitoneal injection 100 mg/kg single, 24 h before, cycle 8 days): 10%
Relative remission rate of oral administration ([3]; Example 411, Doxorubicin (Dox) intravenous injection 12 mg/kg single, CDK inhibitor oral 100 mg/kg single, 24 h before, cycle 8 days): 30%
Relative remission rate of other administration mode ([3]; Example 421, Etoposide and cisplatin intraperitoneal injection 50€ 5 mg/kg single, CDK inhibitor intravenous injection 100 mg/kg single, 24 h before, cycle 7 days): 10%
Relative remission rate of oral administration ([3]; Example 421, Etoposide and cisplatin intraperitoneal injection 50€ 5 mg/kg single, CDK inhibitor oral 150 mg/kg single, 24 h before, cycle 7 days): 20%
Relative remission rate of other administration mode ([3]; Example 436, Gemcitabine intramuscular injection 120 mg/kg single, CDK inhibitor intramuscular injection 100 mg/kg single, 24 h before, cycle 8 days): 10%
Relative remission rate of oral administration ([3]; Example 436, Gemcitabine intramuscular injection 120 mg/kg single, CDK inhibitor oral 100 mg/kg single, 24 h before, cycle 8 days): 40%
Relative remission rate of other administration mode ([3]; Example 438, Gemcitabine and Carboplatin intravenous injection 120 (G) 100 (C) mg/kg single, CDK inhibitor intraperitoneal injection 100 mg/kg single, 12 h before, cycle 8 days): 20%
Relative remission rate of oral administration ([3]; Example 438, Gemcitabine and Carboplatin intravenous injection 120 (G) 100 (C) mg/kg single, CDK inhibitor oral 100 mg/kg single, 12 h before, cycle 8 days): 50%
Relative remission rate of other administration mode ([3]; Example 439, Gemcitabine and Carboplatin intravenous injection 120 (G) 100 (C) mg/kg single, CDK inhibitor intraperitoneal injection 100 mg/kg single, 24 h before, cycle 8 days): 20%
Relative remission rate of oral administration ([3]; Example 439, Gemcitabine and Carboplatin intravenous injection 120 (G) 100 (C) mg/kg single, CDK inhibitor oral 100 mg/kg single, 24 h before, cycle 8 days): 50%
improvement of constipation by oral administration, intraperitoneal injection, intramuscular injection, local administration ([3]; constipation caused by doxorubicin, etoposide, etoposide plus cisplatin, carboplatin, gemcitabine, gemcitabine plus carboplatin, under certain conditions, oral most significant): can significantly improve constipation
